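Each compound was tested at five concentrations against cells in 96-well plates for 48 hours. GI50 marks 50% less growth.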 Activity calls are given as the source filed them. No stated cut-off is given here; in the data, active = GI50 up to about 1.1 µM and inactive = higher.
How the values were obtained:
Test in all cases: DTP human tumour cell line panel, 48 h
IGROV-1 = system: IGROV-1
EKVX = system: EKVX
DLD-1 = system: DLD-1
KM12 = system: KM12
U-251 = system: U-251
NCI-H23 = system: NCI-H23
HT-29 = system: HT-29
RXF 393 = system: RXF 393
A549 = system: A549
ACHN = system: ACHN
SK-OV-3 = system: SK-OV-3
M14 = system: M14
SNB-19 = system: SNB-19
SF-268 = system: SF-268
SF-295 = system: SF-295
SK-MEL-5 = system: SK-MEL-5
SN12C = system: SN12C
HCC 2998 = system: HCC 2998
HCT-15 = system: HCT-15
SNB-75 = system: SNB-75
NCI-H226 = system: NCI-H226
DMS-273 = system: DMS-273
XF498 = system: XF498
NCI-H460 = system: NCI-H460
SNB-78 = system: SNB-78
HOP-62 = system: HOP-62
KM-20L2 = system: KM-20L2
LXFL 529 = system: LXFL 529
M19-MEL = system: M19-MEL
OVCAR-3 = system: OVCAR-3
SR = system: SR
OVCAR-8 = system: OVCAR-8
OVCAR-4 = system: OVCAR-4
Malme-3M = system: Malme-3M
SF-539 = system: SF-539
TK-10 = system: TK-10
SK-MEL-28 = system: SK-MEL-28
SW-620 = system: SW-620
K562 = system: K562
LOX IMVI = system: LOX IMVI
UO-31 = system: UO-31
COLO 205 = system: COLO 205
SK-MEL-2 = system: SK-MEL-2
UACC-62 = system: UACC-62
MOLT-4 = system: MOLT-4
CCRF-CEM = system: CCRF-CEM
HCT-116 = system: HCT-116
786-0 = system: 786-0
NCI-H522 = system: NCI-H522
UACC-257 = system: UACC-257
HL-60 = system: HL-60
RPMI-8226 = system: RPMI-8226
OVCAR-5 = system: OVCAR-5
A498 = system: A498
DMS-114 = system: DMS-114
CAKI-1 = system: CAKI-1

## CC(=O)NC1=C(NCC(C)(C)C)C(=O)c2ccccc2C1=O
IGROV-1
  GI50: > 100 µM (inactive)
EKVX
  GI50: 76.9 µM (inactive)
DLD-1
  GI50: 99.5 µM (inactive)
KM12
  GI50: 82.6 µM (inactive)
U-251
  GI50: 65 µM (inactive)
NCI-H23
  GI50: 56.5 µM (inactive)
HT-29
  GI50: > 100 µM (inactive)
RXF 393
  GI50: 37 µM (inactive)
A549
  GI50: > 100 µM (inactive)
ACHN
  GI50: 26.9 µM (inactive)
SK-OV-3
  GI50: > 100 µM (inactive)
M14
  GI50: > 100 µM (inactive)
SNB-19
  GI50: > 100 µM (inactive)
SF-268
  GI50: > 100 µM (inactive)
SF-295
  GI50: > 100 µM (inactive)
SK-MEL-5
  GI50: 40.2 µM (inactive)
SN12C
  GI50: > 100 µM (inactive)
HCC 2998
  GI50: > 100 µM (inactive)
HCT-15
  GI50: 55.3 µM
SNB-75
  GI50: 96.6 µM (inactive)
NCI-H226
  GI50: > 100 µM (inactive)
DMS-273
  GI50: > 100 µM (inactive)
XF498
  GI50: 25.8 µM (inactive)
NCI-H460
  GI50: 98.4 µM (inactive)
SNB-78
  GI50: 86.1 µM (inactive)
HOP-62
  GI50: > 100 µM (inactive)
KM-20L2
  GI50: 57.8 µM (inactive)
LXFL 529
  GI50: > 100 µM (inactive)
M19-MEL
  GI50: 21.1 µM (inactive)
OVCAR-3
  GI50: 55.2 µM (inactive)
SR
  GI50: > 100 µM (inactive)
OVCAR-8
  GI50: 70.6 µM (inactive)
OVCAR-4
  GI50: > 100 µM (inactive)
Malme-3M
  GI50: 34.3 µM (inactive)
SF-539
  GI50: 32.9 µM (inactive)
TK-10
  GI50: > 100 µM (inactive)
SK-MEL-28
  GI50: > 100 µM (inactive)
SW-620
  GI50: 66.5 µM (inactive)
K562
  GI50: 38.2 µM (inactive)
LOX IMVI
  GI50: 66.8 µM (inactive)
UO-31
  GI50: 46.3 µM (inactive)
COLO 205
  GI50: 39.3 µM (inactive)
SK-MEL-2
  GI50: 69 µM (inactive)
UACC-62
  GI50: 39 µM (inactive)
MOLT-4
  GI50: 57.3 µM (inactive)
CCRF-CEM
  GI50: 38.5 µM (inactive)
HCT-116
  GI50: 33.7 µM (inactive)
786-0
  GI50: > 100 µM (inactive)
NCI-H522
  GI50: 18.9 µM (inactive)
UACC-257
  GI50: 50.2 µM (inactive)
HL-60
  GI50: 32.1 µM (inactive)

## CN(C)c1ccc(/C=C2\Cc3ccccc3C2=O)cc1Br
IGROV-1
  GI50: > 100 µM (inactive)
EKVX
  GI50: 76.6 µM (inactive)
DLD-1
  GI50: 47.5 µM (inactive)
KM12
  GI50: 43.2 µM (inactive)
U-251
  GI50: 53.3 µM (inactive)
NCI-H23
  GI50: 39.2 µM (inactive)
HT-29
  GI50: 34.8 µM (inactive)
A549
  GI50: 61.4 µM (inactive)
ACHN
  GI50: 45.8 µM (inactive)
SK-OV-3
  GI50: > 100 µM (inactive)
M14
  GI50: 54.6 µM (inactive)
SNB-19
  GI50: > 100 µM (inactive)
SF-268
  GI50: 32.7 µM (inactive)
SF-295
  GI50: > 100 µM (inactive)
RPMI-8226
  GI50: 24.1 µM (inactive)
SK-MEL-5
  GI50: 26.4 µM (inactive)
OVCAR-5
  GI50: 79.1 µM (inactive)
SN12C
  GI50: 51.5 µM (inactive)
HCC 2998
  GI50: > 100 µM (inactive)
HCT-15
  GI50: 35.7 µM
SNB-75
  GI50: 38.5 µM (inactive)
XF498
  GI50: 26.1 µM (inactive)
NCI-H460
  GI50: 53.6 µM (inactive)
SNB-78
  GI50: 59.8 µM (inactive)
HOP-62
  GI50: > 100 µM (inactive)
A498
  GI50: > 100 µM (inactive)
KM-20L2
  GI50: 81.8 µM (inactive)
LXFL 529
  GI50: 33.8 µM (inactive)
M19-MEL
  GI50: 51.1 µM (inactive)
OVCAR-3
  GI50: > 100 µM (inactive)
OVCAR-8
  GI50: 63.5 µM (inactive)
OVCAR-4
  GI50: 41.8 µM (inactive)
Malme-3M
  GI50: 31.8 µM (inactive)
TK-10
  GI50: > 100 µM (inactive)
SK-MEL-28
  GI50: 39 µM (inactive)
SW-620
  GI50: 59.3 µM (inactive)
K562
  GI50: 33 µM (inactive)
UO-31
  GI50: 36.6 µM (inactive)
DMS-114
  GI50: 29.6 µM (inactive)
COLO 205
  GI50: 92.9 µM (inactive)
SK-MEL-2
  GI50: 40.6 µM (inactive)
UACC-62
  GI50: 59.8 µM (inactive)
MOLT-4
  GI50: 28.5 µM (inactive)
CAKI-1
  GI50: 64.1 µM (inactive)
CCRF-CEM
  GI50: 34.1 µM (inactive)
786-0
  GI50: 54.1 µM (inactive)
NCI-H522
  GI50: 23.4 µM (inactive)
UACC-257
  GI50: 44.8 µM (inactive)

## Cc1cccc2c1Sc1ccccc1C2NC(=O)CN(C)C (stereo not given)
IGROV-1
  GI50: > 100 µM (inactive)
EKVX
  GI50: > 100 µM (inactive)
U-251
  GI50: > 100 µM (inactive)
NCI-H23
  GI50: > 100 µM (inactive)
HT-29
  GI50: 69.2 µM (inactive)
RXF 393
  GI50: 53.6 µM (inactive)
A549
  GI50: > 100 µM (inactive)
ACHN
  GI50: 43.4 µM (inactive)
SK-OV-3
  GI50: > 100 µM (inactive)
M14
  GI50: 41.4 µM (inactive)
SNB-19
  GI50: > 100 µM (inactive)
SF-268
  GI50: > 100 µM (inactive)
RPMI-8226
  GI50: 77.8 µM (inactive)
SK-MEL-5
  GI50: 36.1 µM (inactive)
OVCAR-5
  GI50: > 100 µM (inactive)
SN12C
  GI50: 81.5 µM (inactive)
HCC 2998
  GI50: 47.6 µM (inactive)
HCT-15
  GI50: > 100 µM
SNB-75
  GI50: 16 µM (inactive)
NCI-H226
  GI50: > 100 µM (inactive)
DMS-273
  GI50: > 100 µM (inactive)
XF498
  GI50: > 100 µM (inactive)
NCI-H460
  GI50: > 100 µM (inactive)
SNB-78
  GI50: > 100 µM (inactive)
HOP-62
  GI50: > 100 µM (inactive)
KM-20L2
  GI50: 18.7 µM (inactive)
LXFL 529
  GI50: > 100 µM (inactive)
M19-MEL
  GI50: 47.4 µM (inactive)
SR
  GI50: 54.7 µM (inactive)
OVCAR-8
  GI50: > 100 µM (inactive)
OVCAR-4
  GI50: > 100 µM (inactive)
SF-539
  GI50: > 100 µM (inactive)
TK-10
  GI50: > 100 µM (inactive)
SK-MEL-28
  GI50: 52.4 µM (inactive)
SW-620
  GI50: > 100 µM (inactive)
K562
  GI50: 81.1 µM (inactive)
LOX IMVI
  GI50: > 100 µM (inactive)
UO-31
  GI50: 33.6 µM (inactive)
DMS-114
  GI50: > 100 µM (inactive)
COLO 205
  GI50: > 100 µM (inactive)
UACC-62
  GI50: > 100 µM (inactive)
MOLT-4
  GI50: 59.7 µM (inactive)
CCRF-CEM
  GI50: > 100 µM (inactive)
HCT-116
  GI50: > 100 µM (inactive)
UACC-257
  GI50: 52.6 µM (inactive)
HL-60
  GI50: 74.5 µM (inactive)

Reference: ChEMBL document CHEMBL1201862, “PubChem BioAssay data set” (2004)
